Patent publication US20240050359A1, “COSMETIC USES OF A HIPPOPHAE RHAMNOIDES CAKE HYDROLYSATE” (BASF Beauty Care Solutions France SAS, priority 2020, published 2024)

Legend:
Assay type in all cases: cell-based
[1] = system: fibroblasts from the papilla of human hair follicles; experiment: ATP production by papilla fibroblasts grown as aggregates; details: capsaicin 10 μM
Protocol: (§1) Materials and method: A suspension composed of fibroblasts from the papilla of human hair follicles and basal culture medium, containing 0.05% v/v growth factor cocktail and the presence or absence of the H. rhamnoides hydrolyzate to be tested, was centrifuged for 5 minutes at 200×g to form aggregates. Control conditions were produced by adding 0.05% v/v growth factor cocktail (ethanol EtOH control) and adding capsaicin (10 μm) as a cell sensitizer (capsaicin control) to the basal culture medium. The aggregates were incubated at a temperature of 37° C. under controlled atmosphere (5% CO2 and 95% relative humidity). The aggregates were rinsed in buffered saline solution (PBS) and the cells were separated by incubation in a mixture of proteases (collagenase A, trypsin) with EDTA. A portion of the suspended cells was taken up in PBS for flow cytometry analysis. The cell count and autofluorescence are the two parameters measured. Autofluorescence is a direct parameter easily measured and used as a marker of cell senescence ([…] et al. 1982). The cell count is an indirect parameter of the growth potential of the hair follicle. Another portion of cells was used for analysis of the cell DNA content and ATP production rate. These two parameters were measured according to the suppliers' instructions (CyQuant NF Cell proliferation Assay Kit C35006, Invitrogen and Bioluminescence Assay Kit CLS II Roche 11699695001, Sigma-Aldrich).

[2] = system: fibroblasts from the papilla of human hair follicles; experiment: Flow cytometry of papilla fibroblasts grown as aggregates (number, granularity, autofluorescence); details: capsaicin 10 μM; Control (EtOH) = 100
Protocol: as §1

[3] = system: fibroblasts from the papilla of human hair follicles; experiment: Amount of DNA in papilla fibroblasts grown as aggregates; details: capsaicin 10 μM
Protocol: as §1, with “Another portion of cells was used for analysis of the cell DNA content and ATP production rate.” left out

[4] = system: Human follicles; experiment: Ex vivo hair shaft elongation of cultured follicles; details: capsaicin (10 μm)
Protocol: Materials and method: Human follicles were cultured ex vivo in complete growth medium containing 0.5 μg/ml insulin, and treated with capsaicin […]. The latter molecule is used as an agent causing slowing of follicle growth. A control condition without capsaicin treatment was produced. Capsaicin-sensitized follicles were treated or not with 0.03% (w/v) H. rhamnoides hydrolyzate. Each culture condition was evaluated on […] cultured in isolation (n=10). The follicles were incubated at 37° C. in the presence of 5% CO2. The culture medium was renewed three times a week for approximately 2 weeks. The elongation of the hair shafts of the cultured follicles was obtained from photographs taken on different days. The hair length was evaluated by image analysis (Image J) and presented in μm as a mean±standard error.

Q: Which results are given for COc1cc(CNC(=O)CCCC/C=C/C(C)C)ccc1O [Capsaicin, capsaicin]?
A: ATP production % Activity [1]: −76%; reduction of the production of ATP relative to the control (ethanol) [1]: 76%; ATP production MEAN ([1]; EtOH control = 100): 24; Autofluorescence (%) [2]: 235%; Granularity (%) [2]: 217%; Number of cells (%) [2]: 28%; amount of DNA % deviation vs control [3]: −77%; amount of DNA MEAN ([3]; EtOH control = 100): 23; hair elongation MEAN (μm) ([4]; Day 0): 0 μm; hair elongation MEAN (μm) ([4]; Day 6): 806 μm; hair elongation MEAN (μm) ([4]; Day 8): 861 μm; hair elongation MEAN (μm) ([4]; Day 11): 869 μm; hair elongation MEAN (μm) ([4]; Day 13): 938 μm; hair elongation MEAN (μm) ([4]; Day 15): 936 μm
